Data as given in US10774087B2, “Sulfonamide derivative having coumarin skeleton” (Daiichi Sankyo Company, Limited, priority 2016, dated 2020).
Counter-ions that a name gives are not always drawn. Like-named read-outs stand apart in the source and are kept apart here.

Tests used:
[1] = target: T1, recombinant MTHFD2 protein (Homo sapiens, UniProt P13995); experiment: MTHFD2 dehydrogenase assay; format: biochemical
T1 construct: containing recombinant MTHFD2 protein
T1 sequence (P13995 36-350): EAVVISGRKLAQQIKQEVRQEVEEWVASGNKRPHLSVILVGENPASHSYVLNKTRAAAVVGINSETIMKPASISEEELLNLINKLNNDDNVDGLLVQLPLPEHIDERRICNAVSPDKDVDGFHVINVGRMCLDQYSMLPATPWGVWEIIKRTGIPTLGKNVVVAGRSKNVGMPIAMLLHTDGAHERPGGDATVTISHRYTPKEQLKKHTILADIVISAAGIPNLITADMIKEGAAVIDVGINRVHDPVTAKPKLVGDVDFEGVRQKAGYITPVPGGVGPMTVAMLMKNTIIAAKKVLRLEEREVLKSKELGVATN

MDA-MB-231 luc cells = experiment: Growth inhibition test using MDA-MB-231 luc cells; format: cell-based, human
[2] = target: T2, recombinant MTHFD1 protein (dehydrogenase domain, alone) (Homo sapiens, UniProt P11586); experiment: MTHFD1 dehydrogenase assay; format: biochemical
T2 construct: recombinant MTHFD1 protein (dehydrogenase domain, alone)
T2 sequence (P11586 2-291 limits assumed): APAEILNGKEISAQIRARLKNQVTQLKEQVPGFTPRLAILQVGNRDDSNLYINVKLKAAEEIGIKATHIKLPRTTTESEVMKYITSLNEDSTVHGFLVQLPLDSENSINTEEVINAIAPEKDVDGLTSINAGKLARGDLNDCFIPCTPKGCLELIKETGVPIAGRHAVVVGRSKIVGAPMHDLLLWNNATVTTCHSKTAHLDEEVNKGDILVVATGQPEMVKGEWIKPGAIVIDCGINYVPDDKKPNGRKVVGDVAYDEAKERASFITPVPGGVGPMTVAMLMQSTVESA

[3] = 200 μM NAD, room temperature 30 minutes, absorbance 355 nm
[4] = 165.4 μM NADP, room temperature 30 minutes, absorbance 355 nm
[5] = human breast cancer MDA-MB-231 luc, Day 3, cell-titer Glo, Day 0 value subtracted, read-out: GI50

SMILES | IC50 [1, 3] | GI50 (MDA-MB-231 luc cells; Homo sapiens, MDA-MB-231) | IC50 [2, 4] | GI50 (MDA-MB-231 luc cells; [5]) | IC50 [1] | IC50 [2]
Cc1c(N2CCN(C)CC2)ccc2c3c(c(=O)oc12)CN(C(=O)c1ccc(NS(C)(=O)=O)c(Cl)c1)CC3 [Example 1, N-(2-chloro-4-{[7-methyl-8-(4-methylpiperazin-1-yl)-5-oxo-1,5-dihydro-2H-chromeno[3,4-c]pyridin-3(4H)-yl]carbonyl}phenyl)methanesulfonamide] | 0.048 µM | 0.94 µM | – | – | – | –
Cc1c(N2CCN(C)CC2)ccc2c3c(c(=O)oc12)CN(C(=O)c1ccc(NS(=O)(=O)C2CC2)c(Cl)c1)CC3 [Example 2, N-(2-Chloro-4-{[7-methyl-8-(4-methylpiperazin-1-yl)-5-oxo-1,5-dihydro-2H-chromeno[3,4-c]pyridin-3(4H)-yl]carbonyl}phenyl)cyclopropanesulfonamide] | 0.028 µM | – | 2.2 µM | 1.1 µM | – | –
Cc1c(N2CCN(C)CC2)ccc2c3c(c(=O)oc12)CN(C(=O)c1ccc(NS(C)(=O)=O)c(OC(F)(F)F)c1)CC3 [Example 3, N-[4-{[7-Methyl-8-(4-methylpiperazin-1-yl)-5-oxo-1,5-dihydro-2H-chromeno[3,4-c]pyridin-3(4H)-yl]carbonyl}-2-(trifluoromethoxy)phenyl]methanesulfonamide] | 0.021 µM | 0.38 µM | – | – | – | –
Cc1c(N2CCN(C)[C@@H](C)C2)ccc2c3c(c(=O)oc12)CN(C(=O)c1ccc(NS(C)(=O)=O)c(Cl)c1)CC3 [Example 4, N-[2-Chloro-4-({8-[(3S)-3,4-dimethylpiperazin-1-yl]-7-methyl-5-oxo-1,5-dihydro-2H-chromeno[3,4-c]pyridin-3(4H)-yl}carbonyl)phenyl]methanesulfonamide] | 0.0093 µM | 0.2 µM | – | – | – | –
Cc1c(N2CCN(C)[C@@H](C)C2)ccc2c3c(c(=O)oc12)CN(C(=O)c1ccc(NS(C)(=O)=O)c(OC(F)(F)F)c1)CC3 [Example 5, N-[4-({8-[(3S)-3,4-Dimethylpiperazin-1-yl]-7-methyl-5-oxo-1,5-dihydro-2H-chromeno[3,4-c]pyridin-3(4H)-yl}carbonyl)-2-(trifluoromethoxy)phenyl]methanesulfonamide] | – | 0.14 µM | – | – | – | –
Cc1c(N2CCN(C)[C@@H](C)C2)ccc2c3c(c(=O)oc12)CN(C(=O)c1ccc(NS(C)(=O)=O)c(C(F)(F)F)c1)CC3 [Example 6, N-[4-({8-[(3S)-3,4-Dimethylpiperazin-1-yl]-7-methyl-5-oxo-1,5-dihydro-2H-chromeno[3,4-c]pyridin-3(4H)-yl}carbonyl)-2-(trifluoromethyl)phenyl]methanesulfonamide] | – | 0.21 µM | – | – | 0.0064 µM | 1.5 µM
Cc1c(N2CCN(C)[C@@H](C)C2)cc(C)c2c3c(c(=O)oc12)CN(C(=O)c1ccc(NS(C)(=O)=O)c(Cl)c1)CC3 [Example 7, N-[2-Chloro-4-({8-[(3S)-3,4-dimethylpiperazin-1-yl]-7,10-dimethyl-5-oxo-1,5-dihydro-2H-chromeno[3,4-c]pyridin-3(4H)-yl}carbonyl)phenyl]methanesulfonamide] | – | 0.1 µM | – | – | 0.0044 µM | 0.56 µM
Cc1c(N2CCN(C)[C@@H](C)C2)cc(C)c2c3c(c(=O)oc12)CN(C(=O)c1ccc(NS(C)(=O)=O)c(OC(F)(F)F)c1)CC3 [Example 8, N-[4-({8-[(3S)-3,4-Dimethylpiperazin-1-yl]-7,10-dimethyl-5-oxo-1,5-dihydro-2H-chromeno[3,4-c]pyridin-3(4H)-yl}carbonyl)-2-(trifluoromethoxy)phenyl]methanesulfonamide] | – | 0.045 µM | – | – | 0.0026 µM | 0.2 µM
CCS(=O)(=O)Nc1ccc(C(=O)N2CCc3c(c(=O)oc4c(C)c(N5CCN(C)[C@@H](C)C5)ccc34)C2)cc1OC(F)(F)F [Example 9, N-[4-({8-[(3S)-3,4-Dimethylpiperazin-1-yl]-7-methyl-5-oxo-1,5-dihydro-2H-chromeno[3,4-c]pyridin-3(4H)-yl}carbonyl)-2-(trifluoromethoxy)phenyl]ethanesulfonamide] | – | 0.12 µM | – | – | 0.0047 µM | 0.4 µM
CCS(=O)(=O)Nc1ccc(C(=O)N2CCc3c(c(=O)oc4c(C)c(N5CCN(C)[C@@H](C)C5)cc(C)c34)C2)cc1OC(F)(F)F [Example 10, N-[4-({8-[(3S)-3,4-Dimethylpiperazin-1-yl]-7,10-dimethyl-5-oxo-1,5-dihydro-2H-chromeno[3,4-c]pyridin-3(4H)-yl}carbonyl)-2-(trifluoromethoxy)phenyl]ethanesulfonamide] | 0.0027 µM | – | 0.22 µM | 0.017 µM | – | –
CC[C@H]1CN(c2ccc3c4c(c(=O)oc3c2C)CN(C(=O)c2ccc(NS(C)(=O)=O)c(OC(F)(F)F)c2)CC4)CCN1C [Example 11, N-[4-({8-[(3S)-3-Ethyl-4-methylpiperazin-1-yl]-7-methyl-5-oxo-1,5-dihydro-2H-chromeno[3,4-c]pyridin-3(4H)-yl}carbonyl)-2-(trifluoromethoxy)phenyl]methanesulfonamide] | – | 0.12 µM | – | – | 0.0051 µM | 0.36 µM
Cc1c(N2CCN(C)C(C)(C)C2)ccc2c3c(c(=O)oc12)CN(C(=O)c1ccc(NS(C)(=O)=O)c(OC(F)(F)F)c1)CC3 [Example 12, N-[4-{[7-Methyl-5-oxo-8-(3,3,4-trimethylpiperazin-1-yl)-1,5-dihydro-2H-chromeno[3,4-c]pyridin-3(4H)-yl]carbonyl}-2-(trifluoromethoxy)phenyl]methanesulfonamide] | – | 0.066 µM | – | – | 0.075 µM | 0.71 µM
Cc1c(N2CCN[C@@H](C)C2)ccc2c3c(c(=O)oc12)CN(C(=O)c1ccc(NS(C)(=O)=O)c(OC(F)(F)F)c1)CC3 [Example 13, N-[4-({7-Methyl-8-[(3S)-3-methylpiperazin-1-yl]-5-oxo-1,5-dihydro-2H-chromeno[3,4-c]pyridin-3(4H)-yl}carbonyl)-2-(trifluoromethoxy)phenyl]methanesulfonamide hydrochloride] | 0.0078 µM | 0.26 µM | 0.9 µM | – | – | –
Cc1c(N2C[C@@H](C)N(C)[C@@H](C)C2)ccc2c3c(c(=O)oc12)CN(C(=O)c1ccc(NS(C)(=O)=O)c(Cl)c1)CC3 [Example 14, N-[2-Chloro-4-({7-methyl-5-oxo-8-[(3R,5S)-3,4,5-trimethylpiperazin-1-yl]-1,5-dihydro-2H-chromeno[3,4-c]pyridin-3(4H)-yl}carbonyl)phenyl]methanesulfonamide] | 0.037 µM | 0.78 µM | – | – | – | –
